Test results from patent US20170066759A1, “AROMATIC 5-MEMBERED HETEROCYCLIC DERIVATIVE HAVING TRPV4-INHIBITING ACTIVITY” (Shionogi & Co., Ltd., priority 2012, published 2017).

Legend:
[1] = Test Example 11: BA test (oral absorbability); format: in vivo; conditions: plasma; Mouse, oral administration 1 mg/kg
Procedure: Materials and methods for experiments to evaluate oral absorbability
(1) Experimental animals: rats or mice were used. (2) Breeding condition: rats or mice were allowed free access to solid feed and sterilized tap water (3) Setting of dosage and grouping: Oral administration and intravenous administration were performed with the predetermined dosage. Grouping was set as below. (Dosage varied depending on each compound)
Oral administration 1 to 30 mg/kg (n=2 to 3)
Intravenous administration 0.5 to 10 mg/kg (n=2 to 3)
(4) Preparation of administered liquid: Oral administration was performed using a solution or a suspension. Intravenous administration was performed after solubilization. (5) Method of Administration: In oral administration, compulsory administration to the stomach was conducted using an oral sonde. […] (6) Evaluation items: Blood was chronologically collected, and then concentration of a compound of the present invention in blood plasma was measured using a LC/MS/MS. […]
(7) Statistical analysis: With regard to a shift in plasma concentration of the compound of the present invention, the area under the plasma concentration-time curve (AUC) was calculated using a nonlinear least-squares program, WinNonlin (a registered trademark). Bioavailability (BA) was calculated from the AUCs of the oral administration group and the intravenous administration group. […]

[2] = target: T1, human TRPV4 (hTRPV4/CHO cells) (Homo sapiens, UniProt Q9HBA0); experiment: Test Example 1: TRPV4 inhibitory activity (IC50 value), 4α-PDD stimulation, Fluo4 calcium fluorescence (FLIPR TETRA); format: cell-based; conditions: Test Example 1, 4α-PDD stimulation, read-out: Test 1 IC50
T1 construct: expressed in transfected cells; host or cells: CHO-K1

[3] = target: T2, CYP3A4 enzyme expressed in Escherichia coli (Homo sapiens, UniProt P08684); experiment: Test Example 5: CYP3A4 fluorescent MBI test; format: in vitro ADME; conditions: substrate 7-BFC, pre-reaction 30 minutes, compound 0.625-20 μmol/L
T2 construct: host or cells: Escherichia coli
Procedure: CYP3A4 Fluorescent MBI Test
The CYP3A4 fluorescent MBI test is a test of investigating enhancement of CYP3A4 inhibition of a compound of the present invention by a metabolism reaction, and the test was performed using, as CYP3A4 enzyme expressed in Esherichia coli and employing, as an index, a reaction in which 7-benzyloxytrifluoromethylchmarin (7-BFC) is debenzylated by the CYP3A4 enzyme to produce a metabolite, 7-hydroxytrifluoromethylchmarin (HFC) emitting fluorescent light.
The reaction conditions were as follows: substrate, 5.6 μmol/L 7-BFC; pre-reaction time, […] or 30 minutes; reaction time, 15 minutes; reaction temperature, 25° C. […]
An enzyme in a K-Pi buffer (pH 7.4) and a solution of the compound of the present invention as a pre-reaction solution were added to a 96-well plate at the above composition of the pre-reaction. […] For the plate on which each index reaction had been performed, a fluorescent value of 7-HFC which is a metabolite was measured with a fluorescent plate reader. […]
Addition of only DMSO which is a solvent dissolving the compound of the present invention to a reaction system was adopted as a control (100%). Remaining activity (%) was calculated at each concentration of the compound of the present invention added as the solution, and IC50 was calculated by reverse-presumption by a logistic model using a concentration and an inhibition rate. […]

[4] = tested on: Salmonella typhimurium TA98 strain, TA100 strain; experiment: Test Example 7: FAT test (mutagenicity); set-up: key: (−) means that mutagenicity is negative; (+) is positive; conditions: TA98 and TA100 strains, non-metabolism activating and metabolism activating conditions
Procedure: Mutagenicity of a compound of the present invention was evaluated.
[…] of freezing-stored rat typhoid bacillus (Salmonella typhimurium TA98 strain, TA100 strain) was inoculated on 10 mL of a liquid nutrient medium (2.5% Oxoid nutrient broth No. 2), and this was cultured before shaking at 37° C. for 10 hours. 9 mL of a bacterial solution of the TA98 strain was centrifuged (2000×g, 10 minutes) to remove a culturing solution. The bacteria was suspended in 9 mL of a Micro F buffer (K2HPO4: 3.5 g/L, KH2PO4: 1 g/L, (NH4)2SO4: 1 g/L, trisodium citrate dehydrate: 0.25 g/L, MgSO4*7H2O: 0.1 g/L), the suspension was added to 110 mL of an Exposure medium (Micro F buffer containing Biotin: 8 μg/mL, histidine: 0.2 μg/mL, glucose: 8 mg/mL). The TA100 strain was added to 120 mL of the Exposure medium relative to 3.16 mL of the bacterial solution to prepare a test bacterial solution. […] Since a well containing a bacterium which has obtained the proliferation ability by mutation of an amino acid (histidine) synthesizing enzyme gene turns from purple to yellow due to a pH change, the bacterium proliferation well which has turned to yellow in 48 wells per dose was counted, and was assessed by comparing with a negative control group. […]

T1 sequence (Q9HBA0 whole entry): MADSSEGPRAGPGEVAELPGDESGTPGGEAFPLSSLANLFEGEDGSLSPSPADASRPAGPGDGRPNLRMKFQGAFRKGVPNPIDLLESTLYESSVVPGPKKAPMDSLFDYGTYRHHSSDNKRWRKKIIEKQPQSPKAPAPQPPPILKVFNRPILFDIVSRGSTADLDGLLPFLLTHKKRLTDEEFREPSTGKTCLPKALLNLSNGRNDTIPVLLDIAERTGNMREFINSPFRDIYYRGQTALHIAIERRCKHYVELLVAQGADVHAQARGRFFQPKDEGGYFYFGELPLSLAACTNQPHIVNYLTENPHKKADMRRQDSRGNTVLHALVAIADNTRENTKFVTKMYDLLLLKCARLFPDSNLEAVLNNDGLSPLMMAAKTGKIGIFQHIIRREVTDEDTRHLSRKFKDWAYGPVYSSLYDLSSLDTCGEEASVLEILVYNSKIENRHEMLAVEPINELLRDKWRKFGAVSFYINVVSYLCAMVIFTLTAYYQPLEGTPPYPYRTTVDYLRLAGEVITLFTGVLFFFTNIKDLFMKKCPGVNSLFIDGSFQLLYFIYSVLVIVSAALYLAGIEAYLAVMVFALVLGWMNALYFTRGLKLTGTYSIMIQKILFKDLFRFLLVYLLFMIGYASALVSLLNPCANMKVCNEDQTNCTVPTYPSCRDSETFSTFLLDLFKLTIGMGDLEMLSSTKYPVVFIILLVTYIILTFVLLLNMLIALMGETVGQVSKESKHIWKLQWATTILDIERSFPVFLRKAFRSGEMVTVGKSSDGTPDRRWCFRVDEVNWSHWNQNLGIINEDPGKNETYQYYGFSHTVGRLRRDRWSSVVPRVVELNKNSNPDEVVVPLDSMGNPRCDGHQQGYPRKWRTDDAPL
T2 sequence (P08684 whole entry): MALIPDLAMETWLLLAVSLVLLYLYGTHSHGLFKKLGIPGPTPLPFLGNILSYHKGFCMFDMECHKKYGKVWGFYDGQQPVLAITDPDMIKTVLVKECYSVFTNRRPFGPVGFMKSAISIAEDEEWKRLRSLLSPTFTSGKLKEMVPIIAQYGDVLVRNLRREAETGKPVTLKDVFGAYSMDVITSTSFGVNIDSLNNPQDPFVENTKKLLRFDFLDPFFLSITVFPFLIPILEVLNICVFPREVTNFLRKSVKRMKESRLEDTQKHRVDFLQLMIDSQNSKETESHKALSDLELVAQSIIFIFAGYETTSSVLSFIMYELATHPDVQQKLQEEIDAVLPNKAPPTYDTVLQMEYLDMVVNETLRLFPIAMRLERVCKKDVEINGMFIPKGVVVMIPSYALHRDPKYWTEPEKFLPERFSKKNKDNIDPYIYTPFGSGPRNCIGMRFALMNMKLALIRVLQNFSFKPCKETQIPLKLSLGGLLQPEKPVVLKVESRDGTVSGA

With Cc1nc(CO)sc1-c1csc(NC(=O)Cn2cc(Cl)cn2)n1 [Compound I-131] the bioavailability [1] was 61.4%, the IC50 [2] was 100 to 1000 nM and the “CYP3A4 fluorescent MBI test: difference between IC50 values without and with preincubation” value [3] was “(−) (when the difference is 3 μM or less, this was defined as (−))”. The “Mutagenicity (FAT test)” value [4] was “(−)”.
